Five molecules from patent US8022055B2, “Betulinic acid derivatives” (Dabur Pharma Limited, priority 2005, dated 2011) can be followed below.

One data set concerns NIH 3T3 cells. Briefly: NIH3T3 cytotoxicity test (72 h MTT assay). In kind it is cell-based. The note with it: NIH3T3, 72 hours; for IC50: Mus musculus, read-out: IC50 for cell lines NIH3T3. The method, then: The cytotoxic effect of chemicals upon NIH 3T3 cells in culture is measured by cell metabolism determination using the previously described MIT assay. Healthy NIH 3T3 cells (an established cell-line), when maintained in culture continuously divide and multiply over time. The basis of this test is that a cytotoxic chemical (regardless of site or mechanism of action) will interfere with this process and, thus, result in a reduction of the growth rate as reflected by cell number. The degree of inhibition of growth, related to the concentration of the test compound, provides an indication of toxicity.
The NIH 3T3 cells are maintained in culture and exposed to test compounds over a range of concentrations and the number of viable cells determined after 72 hours exposure by MIT assay. The number of cells in the presence of test chemicals are compared to that observed in control cultures and the percent inhibition of growth calculated. The IC50 concentration (i.e. the concentration producing 50% inhibition of growth) is determined and expressed as μg/ml. A ratio of IC50 of NIH 3T3 cells to tumor cells is an indicator of predicted toxicity of the molecule and is represented as “Safety Index”. The higher the value, the better is the predicted safety of the molecule.
On the technique in general: Tetrazolium assays rely on reduction of a dye to a coloured formazan, in cell work by metabolically active cells.

The subject of another data set is PA1. Briefly: three day MTT cytotoxicity assay, PA1. In kind it is cell-based, human. The note with it: for IC50 for cell lines PA1: PA1, 72 hours; for IC50: Homo sapiens, PA-1, PA1, 72 hours, read-out: IC50 for cell lines PA1.
A further data set concerns DU145. The data set is described as follows: three day MTT cytotoxicity assay, DU145. It counts as cell-based, human. The note with it: for IC50 for cell lines DU145: DU145, 72 hours; for IC50: Homo sapiens, DU-145, DU145, 72 hours, read-out: IC50 for cell lines DU145.
The next data set has as its system SW620. The data set is described as follows: three day MTT cytotoxicity assay, SW620. In kind it is cell-based, human. The following applies: for IC50 for cell lines SW620: SW620, 72 hours; for IC50: Homo sapiens, SW-620, SW620, 72 hours, read-out: IC50 for cell lines SW620.
Another data set has as its system HBL100. Briefly: three day MTT cytotoxicity assay, HBL100. The note with it: for IC50 for cell lines HBL100 / IC50: HBL100, 72 hours, MTT; for IC50: Homo sapiens, HBL-100, read-out: IC50 for cell lines HBL100. In kind it is cell-based, human.
In the next data set the test system is Miapaca. The data set is described as follows: three day MTT cytotoxicity assay, Miapaca. It counts as cell-based, human. The note with it: for IC50 for cell lines Miapaca / IC50: 72 hours, MTT, Miapaca; for IC50: Homo sapiens, MIA PaCa-2, read-out: IC50 for cell lines Miapaca.
Another data set concerns A549. Briefly: three day MTT cytotoxicity assay, A549. In kind it is cell-based, human. The following applies: A549, 72 hours, MTT; for IC50: Homo sapiens, read-out: IC50 for cell lines A549.
Another data set has as its system K562. The data set is described as follows: three day MTT cytotoxicity assay, K562. In kind it is cell-based, human. The following applies: for IC50 for cell lines K562 / IC50: K562, 72 hours, MTT; for IC50: Homo sapiens, read-out: IC50 for cell lines K562.

Structures are written as SMILES. Where only a bound is given, the exact number is not on record here.

Experimental for A549: (§1) A number of compounds listed in Table-3 were tested for cytotoxicity against prostate, lung, laryngeal, pancreas, breast, colon and ovarian cancer, leukemia and lymphoma, human tumor cell lines. Briefly, a three day MTT cytotoxicity assay was performed, which is based on the principle of uptake of MTT (3-(4,5-dimethylthiazol-2-yl)-2,5-diphenyl tetrazolium bromide), a tetrazolium salt, by the metabolically active cells where it is metabolized by active mitochondria into a blue colored formazan product that is read spectrophotometrically. MIT was dissolved in phosphate buffered saline with a pH of 7.4 to obtain an MIT concentration of 5 mg/ml; the resulting mixture was filtered through a 0.22-micron filter to sterilize and remove a small amount of insoluble residue. For each type of tumor cell, 10,000 to 15,000 cells were seeded in a 96-well culture plate and incubated with the individual betulinic acid derivatives in a CO2 incubator for a total of 72 hours. Control cells not treated with the betulinic acid derivatives were similarly incubated. The assay was terminated by adding 100 μg (20 μl) of MIT to each well then incubating for additional one hour, and finally adding 50 μl of 10% SDS-0.01N HCl to each well to lyse the cells and dissolve formazan. After incubating for one hour, the plate was read spectrophotometrically at 540 nm and the percentage of cytotoxicity calculated using the following formula: Cytotoxicity percentage=100×[1−(X/R1)], where X=(absorbance of treated sample at 540 nm)−(absorbance of blank at 540 nm) R1=absorbance of control sample at 540 nm. The IC50 Values of the cytotoxicity defined as the concentration at which 50% of the cells are killed in vitro was calculated for each cell line treated with each of the betulinic acid derivatives.
Experimental for DU145: as §1
Experimental for HBL100: as §1
Experimental for K562: as §1
Experimental for Miapaca: as §1

As to `C=CCOC(=O)[C@]12CC[C@@H](C(=C)C)C1C1CCC3[C@@]4(C)Cc5c([nH]c6ccccc56)C(C)(C)C4CC[C@@]3(C)[C@]1(C)CC2` (stereo partly shown) [Compound 18, 28-O-Allyl-2,3-didehydroindolo[2′,3′:2,3]betulinate], the “IC50 for cell lines NIH3T3” value with NIH 3T3 cells was more than 20 µg/mL. Moreover, the “IC50 for cell lines PA1” value in the data set on PA1 is more than 20 µg/mL. Further, the “IC50 for cell lines DU145” value in the data set with DU145 is more than 20 µg/mL. Further, the “IC50 for cell lines SW620” value in the data set on SW620 was more than 20 µg/mL. Moreover, in the data set on HBL100, the “IC50 for cell lines HBL100” value was more than 20 µg/mL. For the same molecule, the “IC50 for cell lines Miapaca” value in the data set with Miapaca was more than 20 µg/mL. Further, in the data set on A549, the “IC50 for cell lines A549” value was more than 20 µg/mL. For the same molecule, the “IC50 for cell lines K562” value with K562 is more than 20 µg/mL.

As to `C=C(C)[C@@H]1CC[C@]2(C(=O)OCc3ccccc3)CC[C@]3(C)C(CCC4[C@@]5(C)Cc6c([nH]c7ccc(Cl)cc67)C(C)(C)C5CC[C@]43C)C12` (stereo partly shown) [Compound 19, 28-O-Benzyl-5′-chloro-2,3-didehydroindolo[2′,′:2,3]betulinate], the “IC50 for cell lines NIH3T3” value in the data set with NIH 3T3 cells was more than 20 µg/mL. Further, in the data set on PA1, the “IC50 for cell lines PA1” value was more than 20 µg/mL. In addition, in the data set on DU145, the “IC50 for cell lines DU145” value was more than 20 µg/mL. In the data set with SW620, the “IC50 for cell lines SW620” value was more than 20 µg/mL. Besides, the “IC50 for cell lines HBL100” value in the data set with HBL100 is more than 20 µg/mL. Further, the “IC50 for cell lines Miapaca” value in the data set with Miapaca is more than 20 µg/mL. Besides, the “IC50 for cell lines A549” value with A549 was more than 20 µg/mL. In the data set on K562, the “IC50 for cell lines K562” value was more than 20 µg/mL.

As for `C=C(C)[C@@H]1CC[C@]2(C(=O)NCC(=O)OC)CC[C@]3(C)C(CCC4[C@@]5(C)Cc6c([nH]c7ccccc67)C(C)(C)C5CC[C@]43C)C12` (stereo partly shown) [Compound 21, 28-N-Methylglycinate-2,3-didehydroindolo[2′,3′:2,3]betulinamide], the IC50 in the data set on NIH 3T3 cells, in the data set with PA1, in the data set on DU145, in the data set with SW620, with HBL100 and in the data set with Miapaca was more than 20 µg/mL in each case. The concentration for half-maximal inhibition (IC50) with A549 and in the data set with K562 was more than 20 µg/mL each time.

Consider `C=C(C)[C@@H]1CC[C@]2(C(=O)NCC(=O)O)CC[C@]3(C)[C@H](CC[C@@H]4[C@@]5(C)Cc6c([nH]c7ccccc67)C(C)(C)[C@@H]5CC[C@]43C)[C@@H]12` [Compound 22, 28-N-Glycine-2,3-didehydroindolo[2′,3′:2,3]betulinamide], for which, in the data set with NIH 3T3 cells, the “IC50 for cell lines NIH3T3” value was determined as 0.68 ± 0.003 µg/mL. The “IC50 for cell lines PA1” value in the data set on PA1 was determined as 3.0 µg/mL. The “IC50 for cell lines DU145” value in the data set on DU145 came out at 7.0 µg/mL. The “IC50 for cell lines SW620” value in the data set with SW620 came to 8.7 µg/mL. Further, the “IC50 for cell lines HBL100” value in the data set with HBL100 is more than 20 µg/mL. In addition, the “Specific Index (SI) for cell lines HBL100” value with HBL100 (ratio of IC50 of NIH 3T3 cells to HBL100) is less than 0.034. Also, the “IC50 for cell lines Miapaca” value in the data set with Miapaca turned out to be 0.67 ± 0.03 µg/mL. Besides, in the data set on Miapaca (ratio of IC50 of NIH 3T3 cells to Miapaca), the “Specific Index (SI) for cell lines Miapaca” value stood at 1.015. Also, the “IC50 for cell lines A549” value in the data set with A549 is 3.53 ± 0.82 µg/mL. Further, in the data set with K562, the “IC50 for cell lines K562” value worked out at 11.92 ± 1.37 µg/mL. For the same molecule, the “Specific Index (SI) for cell lines K562” value in the data set on K562 (ratio of IC50 of NIH 3T3 cells to K562) was 0.057.

For `C=C(C)[C@@H]1CC[C@]2(C(=O)NCC(=O)OC)CC[C@]3(C)C(CCC4[C@@]5(C)Cc6c([nH]c7ccc(Cl)cc67)C(C)(C)C5CC[C@]43C)C12` (stereo partly shown) [Compound 23, 28-N-Methylglycinate-5′-chloro-2,3-didehydroindolo[2′,3′:2,3]betulinamide], the IC50 in the data set with NIH 3T3 cells, in the data set with PA1, with DU145, in the data set on SW620, with HBL100 and in the data set with Miapaca was more than 20 µg/mL in each case. The IC50 with A549 and in the data set with K562 was more than 20 µg/mL in each case.

Broadly, the IC50 is the concentration that gives 50% inhibition.
